# Measured values published in US20050267014A1, “Pharmaceutical composition comprising factor VII polypeptides and tranexamic acid” (Novo Nordisk HealthCare A/G, priority 2001, published 2005).
# Key:
# [1] = system: clots formed by normal human plasma; assay: Clot lysis assay, normal human plasma diluted 10-fold, turbidity at 650 nm; assay type: biochemical; details: in the presence of 10 nM FVIIa
# Procedure: Clot lysis assay: Normal human plasma diluted 10-fold with buffer (20 mM HEPES, 150 mM NaCl, 5 mM CaCl, pH 7.4) containing lapidated recombinant tissue factor (Innovin, Dade Behring, 2000-fold dilution), rFVIIa (Novo Nordisk A/S Bagsvaerd, Denmark, various concentrations) and t-PA (American Diagnostica, 8 nM) was added to 96-well ELISA plates and turbidity at 650 nm was measured over time at room temperature. Where indicated, Tranexamic acid (Sigma, various concentrations) was included.
# [2] = system: whole human blood; assay: Whole blood rotation thrombelastography (ROTEG) clot strength; details: tranexamic acid in addition to FVIIa, tPA 2 nM
structure (smiles),measurement,setting,value
NC[C@H]1CC[C@H](C(=O)O)CC1 [Tranexamic acid],Tranexamic acid concentration at which prolongation of clot lysis time was optimal,[1],1 µM
same,effect on clot lysis time,[1]; t-PA 8 nM,further prolongation of the clot lysis time
same,mechanical strength of the clot,[2],increased the mechanical strength of the clot
same,overall survival time of the clot,[2],increased
